From ChEMBL document CHEMBL5149977, “FLT3 Inhibitors in Acute Myeloid Leukemia: Challenges and Recent Developments in Overcoming Resistance” (J Med Chem, 2021)

Assays:
[1] = biological target: Receptor-type tyrosine-protein kinase FLT3 (Homo sapiens, UniProt P36888, ITD); assay: Inhibition of FLT3-ITD (unknown origin)
[2] = system: BaF3; assay: cells; conditions: Mus musculus
Description: Antiproliferative activity against mouse BaF3 cells expressing FLT3-D835Y

[3] = system: BaF3; assay: cells; conditions: Mus musculus; remark: listed apart in the source
[4] = system: BaF3; assay: cells; conditions: Mus musculus; remark: listed apart in the source
[5] = system: MOLM-14; assay: cells; conditions: Homo sapiens
Description: Antiproliferative activity against human MOLM-14 cells

[6] = system: BaF3; assay: cells; conditions: Mus musculus; remark: listed apart in the source
[7] = system: BaF3; assay: cells; conditions: Mus musculus; remark: listed apart in the source
[8] = system: BaF3; assay: cells; conditions: Mus musculus; remark: listed apart in the source
[9] = system: MV4-11; assay: cells; conditions: Homo sapiens
[10] = biological target: Tyrosine-protein kinase ABL1 (Homo sapiens, UniProt P00519); assay: Inhibition of ABL1 (unknown origin)
Chain of Tyrosine-protein kinase ABL1 (P00519 whole entry): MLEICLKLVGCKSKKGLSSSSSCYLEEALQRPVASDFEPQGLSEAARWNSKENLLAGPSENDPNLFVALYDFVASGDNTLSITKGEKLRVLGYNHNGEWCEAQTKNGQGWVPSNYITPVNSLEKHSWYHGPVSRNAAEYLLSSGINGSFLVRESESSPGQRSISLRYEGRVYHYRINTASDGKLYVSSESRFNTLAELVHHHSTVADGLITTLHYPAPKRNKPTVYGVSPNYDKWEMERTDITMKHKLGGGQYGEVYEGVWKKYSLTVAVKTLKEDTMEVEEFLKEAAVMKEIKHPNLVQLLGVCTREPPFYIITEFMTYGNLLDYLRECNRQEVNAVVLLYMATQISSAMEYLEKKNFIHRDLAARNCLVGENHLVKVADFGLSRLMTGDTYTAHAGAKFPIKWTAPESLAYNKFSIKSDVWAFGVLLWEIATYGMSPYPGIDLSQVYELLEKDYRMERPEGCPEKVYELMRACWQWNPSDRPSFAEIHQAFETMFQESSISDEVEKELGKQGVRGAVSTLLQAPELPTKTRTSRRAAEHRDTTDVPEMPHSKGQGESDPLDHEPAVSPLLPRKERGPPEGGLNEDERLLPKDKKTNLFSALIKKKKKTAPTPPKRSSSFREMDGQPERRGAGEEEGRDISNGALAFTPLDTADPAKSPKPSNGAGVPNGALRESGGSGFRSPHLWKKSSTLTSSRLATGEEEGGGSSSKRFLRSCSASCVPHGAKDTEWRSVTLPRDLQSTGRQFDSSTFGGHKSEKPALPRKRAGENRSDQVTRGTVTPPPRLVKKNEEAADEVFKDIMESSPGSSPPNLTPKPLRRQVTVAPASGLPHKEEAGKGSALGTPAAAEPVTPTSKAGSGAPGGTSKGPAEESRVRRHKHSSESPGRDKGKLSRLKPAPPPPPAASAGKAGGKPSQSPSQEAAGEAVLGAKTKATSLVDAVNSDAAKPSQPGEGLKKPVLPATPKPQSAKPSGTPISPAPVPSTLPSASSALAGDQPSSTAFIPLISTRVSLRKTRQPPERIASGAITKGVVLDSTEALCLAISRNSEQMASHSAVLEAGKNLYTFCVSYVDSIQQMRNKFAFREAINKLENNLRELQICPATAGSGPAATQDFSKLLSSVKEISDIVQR

[11] = biological target: Tyrosine-protein kinase Fgr (Homo sapiens, UniProt P09769); assay: Inhibition of FGR (unknown origin)
[12] = biological target: Platelet-derived growth factor receptor alpha (Homo sapiens, UniProt P16234); assay: Inhibition of PDGFR alpha (unknown origin)
Chain of Platelet-derived growth factor receptor alpha (P16234 whole entry): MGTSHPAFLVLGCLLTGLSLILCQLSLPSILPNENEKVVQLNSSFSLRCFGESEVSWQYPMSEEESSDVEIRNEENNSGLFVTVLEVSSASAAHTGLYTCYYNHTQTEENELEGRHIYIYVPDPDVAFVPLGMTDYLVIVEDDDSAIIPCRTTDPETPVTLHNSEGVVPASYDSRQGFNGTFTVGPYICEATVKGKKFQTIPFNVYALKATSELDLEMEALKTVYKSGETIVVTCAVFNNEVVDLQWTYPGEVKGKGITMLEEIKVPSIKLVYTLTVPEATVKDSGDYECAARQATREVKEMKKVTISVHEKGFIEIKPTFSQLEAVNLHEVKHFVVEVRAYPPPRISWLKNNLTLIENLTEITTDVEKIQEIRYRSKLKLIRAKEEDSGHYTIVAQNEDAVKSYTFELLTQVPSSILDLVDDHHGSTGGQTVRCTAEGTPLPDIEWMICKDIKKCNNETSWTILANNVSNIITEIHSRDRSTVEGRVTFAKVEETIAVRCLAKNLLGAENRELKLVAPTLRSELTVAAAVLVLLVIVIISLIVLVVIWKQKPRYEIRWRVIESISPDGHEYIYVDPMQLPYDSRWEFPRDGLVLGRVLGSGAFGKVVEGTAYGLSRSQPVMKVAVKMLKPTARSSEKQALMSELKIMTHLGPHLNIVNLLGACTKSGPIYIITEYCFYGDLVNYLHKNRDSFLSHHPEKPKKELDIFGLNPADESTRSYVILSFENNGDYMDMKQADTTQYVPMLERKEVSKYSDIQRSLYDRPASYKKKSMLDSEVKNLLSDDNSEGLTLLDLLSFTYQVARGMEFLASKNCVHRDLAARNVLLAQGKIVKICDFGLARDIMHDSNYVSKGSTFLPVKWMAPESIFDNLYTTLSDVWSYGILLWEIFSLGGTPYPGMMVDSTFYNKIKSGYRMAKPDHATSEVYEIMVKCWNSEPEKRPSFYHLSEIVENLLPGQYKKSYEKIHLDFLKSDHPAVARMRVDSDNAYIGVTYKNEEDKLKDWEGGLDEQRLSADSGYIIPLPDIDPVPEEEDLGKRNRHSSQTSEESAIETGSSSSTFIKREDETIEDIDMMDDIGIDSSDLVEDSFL

[13] = biological target: NT-3 growth factor receptor (Homo sapiens, UniProt Q16288); assay: Inhibition of TrkC (unknown origin)
Chain of NT-3 growth factor receptor (Q16288 whole entry): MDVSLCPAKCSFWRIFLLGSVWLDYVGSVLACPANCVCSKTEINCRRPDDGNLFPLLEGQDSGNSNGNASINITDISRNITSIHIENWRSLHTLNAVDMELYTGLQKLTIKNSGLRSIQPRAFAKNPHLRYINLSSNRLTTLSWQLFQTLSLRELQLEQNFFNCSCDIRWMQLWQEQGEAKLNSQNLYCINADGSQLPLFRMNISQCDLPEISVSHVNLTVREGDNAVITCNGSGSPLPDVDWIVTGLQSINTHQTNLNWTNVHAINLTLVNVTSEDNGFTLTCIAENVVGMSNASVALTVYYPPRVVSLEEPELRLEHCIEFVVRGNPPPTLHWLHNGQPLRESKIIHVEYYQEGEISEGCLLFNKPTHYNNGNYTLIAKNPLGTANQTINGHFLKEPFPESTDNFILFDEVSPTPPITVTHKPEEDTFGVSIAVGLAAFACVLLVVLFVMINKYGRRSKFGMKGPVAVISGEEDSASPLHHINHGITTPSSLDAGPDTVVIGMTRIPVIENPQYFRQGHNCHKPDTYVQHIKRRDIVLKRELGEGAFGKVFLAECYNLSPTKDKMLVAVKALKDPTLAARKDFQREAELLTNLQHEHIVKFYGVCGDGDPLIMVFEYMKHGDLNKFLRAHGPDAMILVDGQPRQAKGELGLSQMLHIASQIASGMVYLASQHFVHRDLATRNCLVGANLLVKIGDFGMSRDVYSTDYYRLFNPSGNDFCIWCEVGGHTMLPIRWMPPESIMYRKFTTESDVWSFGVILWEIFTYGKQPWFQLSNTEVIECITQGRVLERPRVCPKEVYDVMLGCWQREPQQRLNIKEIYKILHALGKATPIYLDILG

[14] = biological target: Cyclin-dependent kinase 4 (Homo sapiens, UniProt P11802); assay: Inhibition of CDK4 (unknown origin)
Chain of Cyclin-dependent kinase 4 (P11802 whole entry): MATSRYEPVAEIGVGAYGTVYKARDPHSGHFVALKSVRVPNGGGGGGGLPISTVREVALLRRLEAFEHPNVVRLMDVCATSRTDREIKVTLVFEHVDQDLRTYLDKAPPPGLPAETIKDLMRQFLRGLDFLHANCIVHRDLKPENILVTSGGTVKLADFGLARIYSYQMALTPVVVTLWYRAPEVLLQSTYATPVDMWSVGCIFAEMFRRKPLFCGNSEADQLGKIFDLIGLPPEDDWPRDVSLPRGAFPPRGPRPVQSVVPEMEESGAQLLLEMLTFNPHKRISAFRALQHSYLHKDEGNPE

[15] = biological target: Cyclin-dependent kinase 6 (Homo sapiens, UniProt Q00534); assay: Inhibition of CDK6 (unknown origin)
Chain of Cyclin-dependent kinase 6 (Q00534 whole entry): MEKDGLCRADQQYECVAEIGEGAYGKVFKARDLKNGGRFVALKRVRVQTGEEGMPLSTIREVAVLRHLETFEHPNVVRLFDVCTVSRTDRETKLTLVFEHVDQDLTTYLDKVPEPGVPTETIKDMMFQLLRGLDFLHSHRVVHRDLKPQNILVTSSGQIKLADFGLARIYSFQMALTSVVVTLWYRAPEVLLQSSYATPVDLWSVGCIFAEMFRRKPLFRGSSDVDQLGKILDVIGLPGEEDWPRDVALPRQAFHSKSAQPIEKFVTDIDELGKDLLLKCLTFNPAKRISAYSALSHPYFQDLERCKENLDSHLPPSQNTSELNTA

[16] = biological target: Cyclin-dependent kinase 2 (Homo sapiens, UniProt P24941); assay: Inhibition of CDK2 (unknown origin)
[17] = system: MV4-11; assay: Cytotoxicity against human MV4-11 cells incubated for 72 hrs; format: functional, cell-based; conditions: MV4-11, 72 h
[18] = system: MV4-11; assay: Cytotoxicity against human MV4-11 cells […] incubated for 72 hrs; format: functional, cell-based; conditions: MV4-11, 72 h
[19] = biological target: Receptor-type tyrosine-protein kinase FLT3 (Homo sapiens, UniProt P36888, D835Y); assay: Binding affinity to FLT3-D835Y mutant (unknown origin) assessed as dissociation constant
[20] = biological target: Receptor-type tyrosine-protein kinase FLT3 (Homo sapiens, UniProt P36888, D835H); assay: Binding affinity to FLT3-D835H mutant (unknown origin) assessed as dissociation constant
[21] = biological target: T1, Receptor-type tyrosine-protein kinase FLT3 (Homo sapiens, UniProt P36888)
T1 sequence (P36888 whole entry): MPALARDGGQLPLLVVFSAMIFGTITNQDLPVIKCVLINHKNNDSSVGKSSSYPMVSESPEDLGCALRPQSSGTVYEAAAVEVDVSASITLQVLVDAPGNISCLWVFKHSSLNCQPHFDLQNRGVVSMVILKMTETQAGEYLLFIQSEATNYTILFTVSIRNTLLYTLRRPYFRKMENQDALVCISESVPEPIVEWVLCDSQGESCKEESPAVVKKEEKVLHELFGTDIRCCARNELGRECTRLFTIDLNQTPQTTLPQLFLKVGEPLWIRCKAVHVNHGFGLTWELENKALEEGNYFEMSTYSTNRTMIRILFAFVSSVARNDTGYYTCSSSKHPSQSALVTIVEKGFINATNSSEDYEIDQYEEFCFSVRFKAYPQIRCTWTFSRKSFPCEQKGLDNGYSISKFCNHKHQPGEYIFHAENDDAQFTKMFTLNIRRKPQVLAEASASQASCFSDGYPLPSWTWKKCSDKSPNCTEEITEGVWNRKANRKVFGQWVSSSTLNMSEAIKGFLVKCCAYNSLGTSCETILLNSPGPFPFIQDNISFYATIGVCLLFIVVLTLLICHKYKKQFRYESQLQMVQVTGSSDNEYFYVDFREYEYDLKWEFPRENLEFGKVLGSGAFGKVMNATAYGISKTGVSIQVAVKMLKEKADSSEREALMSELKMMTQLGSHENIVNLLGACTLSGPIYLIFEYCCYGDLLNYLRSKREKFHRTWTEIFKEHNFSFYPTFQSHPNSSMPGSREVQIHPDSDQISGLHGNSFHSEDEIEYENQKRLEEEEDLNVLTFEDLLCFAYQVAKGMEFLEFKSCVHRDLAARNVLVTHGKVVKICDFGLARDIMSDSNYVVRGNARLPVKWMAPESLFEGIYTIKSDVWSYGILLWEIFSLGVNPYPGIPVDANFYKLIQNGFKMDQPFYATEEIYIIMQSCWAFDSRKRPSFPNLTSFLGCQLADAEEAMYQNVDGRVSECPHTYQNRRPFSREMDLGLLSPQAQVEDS
Description: Inhibition of FLT3 (unknown origin)

[22] = Antiproliferative activity against mouse 32D cells expressing FLT3-ITD assessed as cell growth inhibition; format: functional, cell-based
[23] = Antiproliferative activity against mouse 32D cells expressing FLT3-D835Y assessed as cell growth inhibition; format: functional, cell-based
[24] = Antiproliferative activity against mouse 32D cells expressing FLT3-D835H assessed as cell growth inhibition; format: functional
[25] = Antiproliferative activity against mouse 32D cells expressing FLT3-ITD-D835Y assessed as cell growth inhibition; format: functional
[26] = Antiproliferative activity against mouse 32D cells expressing FLT3-ITD-Y842C assessed as cell growth inhibition; format: functional
[27] = Antiproliferative activity against mouse 32D cells expressing FLT3-ITD-Y842H assessed as cell growth inhibition; format: functional
[28] = Antiproliferative activity against mouse 32D cells expressing FLT3-ITD-F691L assessed as cell growth inhibition; format: functional
[29] = biological target: Leukocyte tyrosine kinase receptor (Homo sapiens) (UniProt P29376); assay: Inhibition of LTK (unknown origin)
Chain of Leukocyte tyrosine kinase receptor (Homo sapiens) (P29376 whole entry): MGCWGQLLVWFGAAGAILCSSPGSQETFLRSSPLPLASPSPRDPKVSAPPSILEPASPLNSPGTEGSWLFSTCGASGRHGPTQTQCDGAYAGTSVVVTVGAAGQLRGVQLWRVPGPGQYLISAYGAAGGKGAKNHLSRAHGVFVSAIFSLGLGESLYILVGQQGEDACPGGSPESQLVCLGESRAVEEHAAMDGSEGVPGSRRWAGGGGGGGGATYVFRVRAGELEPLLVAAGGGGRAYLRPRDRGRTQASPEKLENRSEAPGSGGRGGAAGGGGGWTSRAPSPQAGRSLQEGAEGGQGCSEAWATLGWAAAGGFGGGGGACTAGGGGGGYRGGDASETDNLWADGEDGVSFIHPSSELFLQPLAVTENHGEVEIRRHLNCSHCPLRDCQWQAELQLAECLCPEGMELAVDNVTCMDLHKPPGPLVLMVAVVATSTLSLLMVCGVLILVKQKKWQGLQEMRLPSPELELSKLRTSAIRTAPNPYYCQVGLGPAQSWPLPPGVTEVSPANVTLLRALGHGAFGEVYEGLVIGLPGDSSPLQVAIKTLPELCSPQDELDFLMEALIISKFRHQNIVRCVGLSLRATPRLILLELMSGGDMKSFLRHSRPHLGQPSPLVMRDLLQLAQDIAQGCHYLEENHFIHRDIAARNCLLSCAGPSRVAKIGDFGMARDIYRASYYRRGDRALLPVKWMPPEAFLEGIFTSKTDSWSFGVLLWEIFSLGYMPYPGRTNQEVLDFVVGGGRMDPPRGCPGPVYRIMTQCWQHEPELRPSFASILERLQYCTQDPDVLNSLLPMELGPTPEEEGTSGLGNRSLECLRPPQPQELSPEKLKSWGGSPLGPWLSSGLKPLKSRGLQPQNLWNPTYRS

[30] = system: BaF3; assay: cells; conditions: Mus musculus; remark: listed apart in the source
[31] = system: BaF3; assay: cells; conditions: Mus musculus; remark: listed apart in the source
[32] = system: MOLM-13; assay: Antiproliferative activity against human MOLM-13 cells incubated for 72 hrs by MTS assay; format: functional
[33] = system: MOLM-13; assay: Antiproliferative activity against drug resistant human MOLM-13 cells incubated for 72 hrs by MTS assay; format: functional
[34] = system: BaF3; assay: Cytotoxicity against mouse BaF3 cells expressing FLT3-ITD measured after 72 hrs by cell titre glo assay; format: functional, cell-based; conditions: BaF3, 72 h
[35] = system: BaF3; assay: Cytotoxicity against mouse BaF3 cells expressing FLT3-ITD-D835H measured after 72 hrs by cell titre glo assay; format: functional, cell-based; conditions: BaF3, 72 h
[36] = system: BaF3; assay: Cytotoxicity against mouse BaF3 cells expressing FLT3-ITD-D835Y measured after 72 hrs by cell titre glo assay; format: functional, cell-based; conditions: BaF3, 72 h
[37] = system: BaF3; assay: Cytotoxicity against mouse BaF3 cells expressing FLT3-ITD-F691L measured after 72 hrs by cell titre glo assay; format: functional, cell-based; conditions: BaF3, 72 h
[38] = system: MOLM-13; assay: Cytotoxicity against human MOLM-13 cells measured after 72 hrs by cell titre glo assay; format: functional, cell-based; conditions: MOLM-13, 72 h
[39] = system: MOLM-13; assay: Cytotoxicity against human MOLM-13 cells expressing FLT3-D835Y measured after 72 hrs by cell titre glo assay; format: functional, cell-based; conditions: MOLM-13, 72 h
[40] = system: MOLM-14; assay: cells; conditions: Homo sapiens; remark: listed apart in the source
Description: Antiproliferative activity against human MOLM-14 cells expressing F691L

COc1cc2c(Oc3ccc(NC(=O)Nc4cccc(C)c4)cc3F)ccnc2cc1OCCCN1CCOCC1
IC50 [1]: 7 nM
IC50 [2]: 0.19 nM
IC50 [3]: 0.22 nM
IC50 [4]: 1.1 nM
IC50 [5]: 0.13 nM
IC50 [6]: 0.17 nM
IC50 [7]: 2.5 nM
IC50 [8]: 22 nM
IC50 [9]: 0.14 nM

COc1cc2ncc(-c3cccc(NC4CCNC4)n3)n2cc1-c1cnn(C)c1 (centres undefined)
IC50 [10]: 0.6 nM
IC50 [11]: < 0.5 nM
IC50 [12]: 1.1 nM
IC50 [13]: 0.7 nM

C[C@H]1CC[C@@H](n2c3cnccc3c3cnc(Nc4ccc5c(n4)CCN(C(=O)CO)C5)nc32)CC1
Kd [1]: 4 nM
IC50 [14]: 3 nM
IC50 [15]: 8 nM
IC50 [16]: 375 nM
IC50 [17]: 18 nM
IC50 [18]: 9 nM
Kd [19]: 1 nM
Kd [20]: 1 nM
IC50 [21]: 1 nM

CCCNc1nc(Nc2ccc(C#N)cc2)ncc1C#CCCCNC(=O)[C@H](C)N(C)C(=O)/C=C/CN(C)C [FF-10101]
IC50 [22]: 1.9 nM
IC50 [23]: 0.32 nM
GI50 [24]: 1.1 nM
GI50 [25]: 0.81 nM
GI50 [26]: 3.5 nM
GI50 [27]: 5.3 nM
GI50 [28]: 10 nM

CCc1nc(C(N)=O)c(Nc2ccc(N3CCC(N4CCN(C)CC4)CC3)c(OC)c2)nc1NC1CCOCC1 [GILTERITINIB]
IC50 [29]: 0.35 nM
IC50 [30]: 1.8 nM
IC50 [31]: 2.1 nM

Cc1nn(C)cc1-c1nc2c(N3CCN(Cc4ccc(Cl)cc4)CC3)c(Cl)cnc2[nH]1 [MOBINITINIB]
GI50 [32]: 100 nM
GI50 [33]: 180 nM

C1=N/C2=N/c3ccc(OCCN4CCCC4)c(c3)COC/C=C/COCc3cccc(c3)C(=C1)N2 [PACRITINIB]
IC50 [34]: 133 nM
IC50 [35]: 306 nM
IC50 [36]: 434 nM
IC50 [37]: 291 nM
IC50 [38]: 73 nM
IC50 [39]: 173 nM

FC(F)(F)c1ccc(CNc2ccc(Cc3c[nH]c4ncc(Cl)cc34)cn2)cn1 [PEXIDARTINIB]
IC50 [2]: 0.19 nM
IC50 [3]: 130 nM
IC50 [4]: 97 nM
IC50 [5]: 350 nM
IC50 [40]: 670 nM
IC50 [6]: 0.17 nM
IC50 [7]: 2.5 nM
IC50 [8]: 4700 nM
IC50 [9]: 200 nM
